# Results published in patent publication US6667316B1, “Pharmaceutically active isoindoline derivatives” (Celgene Corporation, priority 1999, dated 2003).
row,melting point [°C],SMILES
1,128 to 129,"CCOc1cc(C(CC(C)=O)N2C(=O)c3cccc(NC(C)=O)c3C2=O)ccc1OC (centres unmarked) [Example 25, N-{2-[1-(3-Ethoxy-4-methoxyphenyl)-3-oxobutyl]-1,3-dioxoisoindolin-4-yl}acetamide]"
2,277 to 279,"CCOc1cc(C(CS(C)(=O)=O)N2C(=O)c3cccc(N(S(C)(=O)=O)S(C)(=O)=O)c3C2=O)ccc1OC (centres unmarked) [Example 69, 4-[Bis(methylsulfonyl)amino]-2-[1-(3-ethoxy-4-methoxyphenyl)-2-(methyl-sulfonyl)ethyl]isoindoline-1,3-dione]"
3,178 to 180,COc1ccc(C(CS(C)(=O)=O)N2C(=O)c3cccc(NC(=O)CN(C)C)c3C2=O)cc1OC.Cl (centres unmarked)
4,84 to 86,"CCOc1cc(C(CS(C)(=O)=O)N2C(=O)c3cccc(CNC(C)=O)c3C2=O)ccc1OC (centres unmarked) [Example 66, N-({2-[1-(3-Ethoxy-4-methoxyphenyl)-2-(methylsulfonyl)ethyl]-1,3-dioxoisoindolin-4-yl}methyl)acetamide]"
5,134 to 136,"CCOc1cc(C(CS(C)(=O)=O)N2C(=O)c3cccc(NC(=O)C4CCCC4)c3C2=O)ccc1OC (centres unmarked) [Example 45, Cyclopentyl-N-{2-[1-(3-ethoxy-4-methoxyphenyl)-2-(methylsulfonyl)ethyl]-1,3-dioxoisoindolin-4-yl}carboxamide]"
6,88 to 90,"CCOc1cc([C@@H](CC(=O)N(C)C)N2Cc3cccc(NC(C)=O)c3C2=O)ccc1OC [Example 59, (3R)-3-[7-(Acetylamino)-1-oxoisoindolin-2-yl]-3-(3-ethoxy-4-methoxyphenyl)-N,N-dimethylpropanamide]"
7,178 to 180,"CCOc1cc(C(CS(C)(=O)=O)N2C(=O)c3cccc(CONC=O)c3C2=O)ccc1OC (centres unmarked) [Example 12, N-{2-[1-(3-Ethoxy-4-methoxyphenyl)-2-methylsulfonylethyl]-1,3-dioxoisoindolin-4-yl}methoxycarboxamide]"
8,138 to 140,CCOc1cc(C(CS(C)(=O)=O)N2C(=O)c3cccc(NC(=O)C(C)N(C)C)c3C2=O)ccc1OC.Cl (centres unmarked)
9,92 to 94,"CCOc1cc([C@@H](CC(=O)N(C)C)N2Cc3cccc(NC(=O)C4CC4)c3C2=O)ccc1OC [Example 60, (3R)-3-[7-(Cyclopropylcarbonylamino)-1-oxoisoindolin-2-yl]-3-(3-ethoxy-4-methoxyphenyl)-N,N-dimethylpropanamide]"
10,140 to 141,"CCOc1cc([C@@H](CS(C)(=O)=O)N2C(=O)c3cccc(NC(=O)C4CC4)c3C2=O)ccc1OC [Example 51, Cyclopropyl-N-{2-[(1S)-1-(3-ethoxy-4-methoxyphenyl)-2-(methylsulfonyl)ethyl]-1,3-dioxoisoindolin-4-yl}carboxamide]"
11,130 to 132,"CCOc1cc(C(CS(C)(=O)=O)N2C(=O)c3cccc(NC(=O)C(F)(F)F)c3C2=O)ccc1OC (centres unmarked) [Example 11, N-{2-[1-(3-ethoxy-4-methoxyphenyl)-2-methylsulfonylethyl]-1,3-dioxoisoindolin-4-yl}-2,2,2-trifluoroacetamide]"
12,166 to 168,"CCOc1cc(C(CS(C)(=O)=O)N2C(=O)c3cccc(NC(=O)CCl)c3C2=O)ccc1OC (centres unmarked) [Example 8, 2-Chloro-N-{2-[1-(3-ethoxy-4-methoxyphenyl)-2-methylsulfonylethyl]-1,3-dioxoisoindolin-4-yl}acetamide]"
13,81 to 83,"CCOc1cc([C@@H](CC(C)=O)N2C(=O)c3cccc(NC(C)=O)c3C2=O)ccc1OC [Example 27, N-{2-[1R-(3-ethoxy-4-methoxyphenyl)-3-oxobutyl]-1,3-dioxoisoindolin-4-yl}acetamide]"
14,153 to 155,"CCOc1cc(C(CS(C)(=O)=O)N2C(=O)c3cccc(NC(=O)C4CC4)c3C2=O)ccc1OC (centres unmarked) [Example 7, Cyclopropyl-N-{2-[1-(3-ethoxy-4-methoxyphenyl)-2-methylsulfonylethyl]-1,3-dioxoisoindolin-4-yl}carboxamide]"
15,194 to 196,"COc1ccc(C(CC(C)=O)N2C(=O)c3cccc(N(S(C)(=O)=O)S(C)(=O)=O)c3C2=O)cc1OC (centres unmarked) [Example 78, 2-[1-(3,4-Dimethoxyphenyl)-3-oxobutyl]-4-[bis(methylsulfonyl)amino]isoindoline-1,3-dione]"
16,132 to 134,"CCOc1cc(C(CC(C)O)N2C(=O)c3cccc(NC(C)=O)c3C2=O)ccc1OC (centres unmarked) [Example 24, N-{2-[1-(3-ethoxy-4-methoxyphenyl)-3-hydroxybutyl]-1,3-dioxoisoindolin-4-yl}acetamide]"
17,122 to 124,CCOc1cc([C@@H](CC(=O)N(C)C)N2C(=O)c3cccc(NC(=O)CN(C)C)c3C2=O)ccc1OC.Cl
18,92 to 94,CCOc1cc(C(CC(=O)N(C)C)N2C(=O)c3cccc(NC(=O)CN(C)C)c3C2=O)ccc1OC.Cl (centres unmarked)
19,111 to 112,"CCOc1cc(C(CS(C)(=O)=O)N2C(=O)c3cccc(NC(=O)CN)c3C2=O)ccc1OC (centres unmarked) [Example 9, 2-Amino-N-{2-[1-(3-ethoxy-4-methoxyphenyl)-2-methylsulfonylethyl]-1,3-dioxoisoindolin-4-yl}acetamide]"
20,130 to 132,"COc1ccc(C(CS(C)(=O)=O)N2C(=O)c3cccc(NC(=O)C4CC4)c3C2=O)cc1OC (centres unmarked) [Example 54, Cyclopropyl-N-{2-[1-(3,4-dimethoxyphenyl)-2-(methylsulfonyl)ethyl]-1,3-dioxoisoindolin-4-yl}carboxamide]"
21,137 to 139,"CCOc1cc(C(CC(=O)CC)N2C(=O)c3cccc(NC(C)=O)c3C2=O)ccc1OC (centres unmarked) [Example 72, N-{2-[1-(3-Ethoxy-4-methoxyphenyl)-3-oxopentyl]1,3-dioxoisoindolin-4-yl}acetamide]"
22,192 to 194,CCOc1cc([C@H](CS(C)(=O)=O)N2C(=O)c3cccc(NC(=O)CN(C)C)c3C2=O)ccc1OC.Cl
23,122 to 124,CCOc1cc(C(CS(C)(=O)=O)N2C(=O)c3ccc([N+](=O)[O-])c([N+](=O)[O-])c3C2=O)ccc1OC (centres unmarked)
24,202 to 204,CCOc1cc([C@@H](CS(C)(=O)=O)N2C(=O)c3cccc(NC(=O)CN(C)C)c3C2=O)ccc1OC.Cl
25,163 to 165,"CCOc1cc(C(CS(C)(=O)=O)N2C(=O)c3cccc(NC(=O)CCN(C)C)c3C2=O)ccc1OC (centres unmarked) [Example 46, 3-(Dimethylamino)-N-{2-[1-(3-ethoxy-4-methoxyphenyl)-2-(methylsulfonyl)ethyl]-1,3-dioxoisoindolin-4-yl}propanamide]"
26,205 to 207,"CCOc1cc(C(CS(C)(=O)=O)N2C(=O)c3ccc(N)c(N)c3C2=O)ccc1OC (centres unmarked) [Example 2, 2-[1-(3-Ethoxy-4-methoxyphenyl)-2-methylsulfonylethyl]-4,5-diaminoisoindoline-1,3-dione]"
27,145 to 147,CCOc1cc(C(CS(C)(=O)=O)N2Cc3cccc(NC(=O)CN(C)C)c3C2=O)ccc1OC.Cl (centres unmarked)
28,99 to 101,"CCOc1cc(C(CS(C)(=O)=O)N2C(=O)c3cccc(-c4nnc(C)o4)c3C2=O)ccc1OC (centres unmarked) [Example 15, 2-[1-(3-Ethoxy-4-methoxyphenyl)-2-methylsulfonylethyl]-4-(5-methyl-1,3,4-oxadiazol-2-yl)isoindoline-1,3-dione]"
29,145 to 147,"COc1ccc(C(CC(C)=O)N2C(=O)c3cccc(NC(C)=O)c3C2=O)cc1OC1CCCC1 (centres unmarked) [Example 76, N-{2-[1-(3-Cyclopentyloxy-4-methoxyphenyl)-3-oxobutyl]-1,3-dioxoisoindolin-4-yl}acetamide]"
